Source: PMC6934184, “Selective DNA-PKcs inhibition extends the therapeutic index of localized radiotherapy and chemotherapy” (The Journal of Clinical Investigation, 2019)

Target: T1, AMPK (A2/B2/G1) (Homo sapiens, UniProt P54646)
T1 construct: purchased Thermo Fisher Scientific (Life Technologies) SelectScreen
Assay: SelectScreen LanthaScreen
Type: binding
Conditions: read-out: % displacement
Protocol: The in vitro kinase selectivity of NU5455 was determined using the SelectScreen Broad Assay Panel (Thermo Fisher Scientific) involving activity and binding assays (Supplemental Table 1). […] Class IA PI3Ks were measured using the p85α subunit.
Kinase [ATP] % Assay Kinase [ATP] % Assay Kinase [ATP] % Assay Kinase [ATP] % Assay
DNA-PK Km app 98.3 Z LATS2 n/a 4.7 L KIT D820E n/a 1.3 L GSK3B (GSK3 beta) Km app -2.5 Z
PIK3C3 (hVPS34) Km app 85.9 A PRKCZ (PKC zeta) Km app 4.7 Z GRK1 n/a 1.3 L BMPR2 n/a -2.5 L
PIK3C2B (PI3K-C2 beta) 10 28.9 A FGFR1 Km app 4.7 Z BRSK2 n/a 1.2 L CDC42 BPB (MRCKB) Km app -2.5 Z
SNF1LK2 Km app 26.6 Z MINK1 Km app 4.6 Z NUAK1 (ARK5) Km app 1.2 A AMPK (A2/B2/G2) n/a -2.6 L
HCK Km app 18.0 Z CSF1R (FMS) Km app 4.3 Z CDK9/cyclin K n/a 1.0 L PRKG1 Km app -2.7 Z
NEK2 Km app 17.8 Z CSNK1G3 (CK1 gamma 3) Km app 4.2 Z NUAK2 n/a 1.0 L KIT T670E n/a -2.8 L
ALK Km app 17.3 Z STK32C (YANK3) n/a 4.2 L CDK2/cyclin O n/a 0.9 L ERBB4 (HER4) Km app -2.8 Z
FGFR3 K650M n/a 16.5 L STK22D (TSSK1) Km app 4.2 Z CAMKK2 (CaMKK beta) n/a 0.9 L PLK4 n/a -2.8 L
SIK3 n/a 16.1 L TAOK3 (JIK) n/a 4.2 L FGFR3 Km app 0.9 Z GRK7 Km app -3.0 Z
LYN A Km app 15.2 Z RPS6KA4 (MSK2) Km app 4.2 Z ULK2 n/a 0.9 L MAPKAPK2 Km app -3.1 Z
BMPR1B (ALK6) n/a 14.5 L PTK2B (FAK2) Km app 4.2 Z KIT D816V n/a 0.9 L FGFR4 Km app -3.1 Z
INSRR (IRR) Km app 14.1 Z CLK2 Km app 4.1 Z CAMK1 (CaMK1) 10 0.8 A CASK n/a -3.1 L
PLK2 Km app 14.1 Z STK24 (MST3) Km app 4.1 Z PTK6 (Brk) Km app 0.7 Z GRK5 Km app -3.2 Z
PRKACA (PKA) Km app 14.0 Z CAMK1D (CaMKI delta) Km app 4.1 Z CAMK2B (CaMKII beta) Km app 0.7 Z EGFR (ErbB1) T790M Km app -3.3 Z
EIF2AK2 (PKR) n/a 13.3 L INSR Km app 4.1 Z ACVR1 (ALK2) n/a 0.7 L PAK4 Km app -3.3 Z
PRKX Km app 12.5 Z IRAK1 Km app 4.0 A ABL1 H396P n/a 0.6 L DAPK3 (ZIPK) Km app -3.4 Z
FGR Km app 12.1 Z SRC N1 Km app 3.9 Z MERTK (cMER) A708S n/a 0.6 L RET M918T n/a -3.5 L
CLK1 Km app 11.7 Z SRPK2 Km app 3.9 Z MAPKAPK5 (PRAK) Km app 0.6 Z PRKCQ (PKC theta) Km app -3.7 Z
MARK3 Km app 11.4 Z RPS6KA6 (RSK4) Km app 3.8 Z AKT1 (PKB alpha) Km app 0.5 Z CAMKK1 (CAMKKA) n/a -3.8 L
PDGFRB (PDGFR beta) Km app 11.0 Z GRK6 Km app 3.7 Z NTRK3 (TRKC) Km app 0.4 Z FLT3 D835Y Km app -3.9 Z
PRKCN (PKD3) Km app 10.7 Z PKN1 (PRK1) Km app 3.6 Z ZAP70 Km app 0.3 Z ROCK2 Km app -4.1 Z
STK16 (PKL12) n/a 10.5 L MAP3K8 (COT) 100 3.5 Z CSNK1A1 (CK1 alpha 1) Km app 0.3 Z CHUK (IKK alpha) Km app -4.2 A
FES (FPS) Km app 10.4 Z FLT4 (VEGFR3) Km app 3.5 Z MYLK (MLCK) n/a 0.2 L AXL Km app -4.2 Z
ABL1 Km app 10.4 Z GRK4 Km app 3.5 Z MKNK2 (MNK2) n/a 0.2 L PIM2 Km app -4.3 Z
MUSK Km app 10.3 Z FRK (PTK5) Km app 3.4 Z AMPK (A1/B1/G3) n/a 0.2 L PAK1 Km app -4.4 Z
MAPK1 (ERK2) Km app 10.1 Z FYN A n/a 3.3 L MAP3K2 (MEKK2) n/a 0.1 L BMPR1A (ALK3) n/a -4.4 L
BRAF 100 9.9 Z CDK1/cyclin A2 n/a 3.3 L CDK8/cyclin C n/a 0.1 L STK4 (MST1) Km app -4.4 Z
IGF1R Km app 9.7 Z KIT V559D T670I n/a 3.1 L MARK2 Km app 0.1 Z PRKCH (PKC eta) Km app -4.6 Z
MAPK14 (p38 alpha) Km app 9.7 Z SPHK2 10 3.1 A ICK n/a 0.0 L SGKL (SGK3) Km app -4.6 Z
LCK Km app 9.6 Z FGFR3 G697C n/a 3.1 L FGFR2 Km app 0.0 Z PI4KB (PI4K beta) Km app -4.7 A
MAPK11 (p38 beta) Km app 9.5 Z RIPK2 n/a 3.1 L AKT2 (PKB beta) Km app 0.0 Z PRKCE (PKC epsilon) Km app -4.9 Z
SRC Km app 9.5 Z PAK6 Km app 3.0 Z EPHB2 Km app -0.1 Z PHKG1 Km app -5.0 Z
CHEK1 (CHK1) Km app 9.3 Z LYN B Km app 3.0 Z TGFBR2 n/a -0.1 L PDGFRA D842V Km app -5.0 Z
CAMK2D (CaMKII delta) Km app 9.3 Z DAPK2 n/a 2.9 L TEK (Tie2) Km app -0.1 Z PRKG2 (PKG2) Km app -5.1 Z
PLK1 Km app 9.2 Z EPHA4 Km app 2.9 Z AURKA (Aurora A) Km app -0.1 Z TYRO3 (RSE) Km app -5.1 Z
RET Y791F Km app 9.2 Z PIK3CG (p110 gamma) Km app 2.9 A KIT D816H n/a -0.2 L TAOK2 (TAO1) Km app -5.1 Z
FLT3 Km app 9.1 Z HIPK1 (Myak) Km app 2.8 Z KIT N822K n/a -0.2 L EPHB4 Km app -5.3 Z
MAPK10 (JNK3) 100 9.0 Z ADRBK2 (GRK3) Km app 2.8 Z PRKACG (PRKAC gamma) n/a -0.2 L AURKC (Aurora C) Km app -5.4 Z
CSNK2A2 (CK2 alpha 2) Km app 8.7 Z STK17B (DRAK2) n/a 2.7 L TEK (TIE2) Y1108F n/a -0.3 L JAK1 Km app -5.7 Z […]

T1 sequence (P54646 whole entry): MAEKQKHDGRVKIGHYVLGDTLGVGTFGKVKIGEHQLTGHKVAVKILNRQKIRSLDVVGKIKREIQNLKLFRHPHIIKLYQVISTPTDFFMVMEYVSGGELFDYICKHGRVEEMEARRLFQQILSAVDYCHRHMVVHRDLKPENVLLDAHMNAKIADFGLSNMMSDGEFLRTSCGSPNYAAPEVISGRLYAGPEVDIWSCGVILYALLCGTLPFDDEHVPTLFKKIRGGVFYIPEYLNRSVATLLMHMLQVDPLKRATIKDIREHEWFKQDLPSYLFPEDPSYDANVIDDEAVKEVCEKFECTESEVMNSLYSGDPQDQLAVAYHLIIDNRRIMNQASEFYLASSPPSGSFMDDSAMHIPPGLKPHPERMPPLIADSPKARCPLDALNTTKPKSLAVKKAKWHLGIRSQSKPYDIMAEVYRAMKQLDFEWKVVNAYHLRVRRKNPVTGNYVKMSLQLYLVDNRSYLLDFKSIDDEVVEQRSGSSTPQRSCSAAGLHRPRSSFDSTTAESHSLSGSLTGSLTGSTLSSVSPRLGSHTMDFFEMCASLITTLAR
T1 sequence (O43741 whole entry partner): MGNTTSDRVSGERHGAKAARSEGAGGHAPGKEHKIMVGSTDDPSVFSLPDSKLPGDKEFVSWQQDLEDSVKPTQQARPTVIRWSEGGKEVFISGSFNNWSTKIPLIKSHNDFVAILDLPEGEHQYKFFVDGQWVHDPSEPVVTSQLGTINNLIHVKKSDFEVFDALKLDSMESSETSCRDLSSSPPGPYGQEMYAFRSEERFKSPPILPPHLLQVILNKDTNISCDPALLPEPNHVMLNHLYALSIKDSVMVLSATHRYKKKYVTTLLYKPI
T1 sequence (P54619 whole entry partner): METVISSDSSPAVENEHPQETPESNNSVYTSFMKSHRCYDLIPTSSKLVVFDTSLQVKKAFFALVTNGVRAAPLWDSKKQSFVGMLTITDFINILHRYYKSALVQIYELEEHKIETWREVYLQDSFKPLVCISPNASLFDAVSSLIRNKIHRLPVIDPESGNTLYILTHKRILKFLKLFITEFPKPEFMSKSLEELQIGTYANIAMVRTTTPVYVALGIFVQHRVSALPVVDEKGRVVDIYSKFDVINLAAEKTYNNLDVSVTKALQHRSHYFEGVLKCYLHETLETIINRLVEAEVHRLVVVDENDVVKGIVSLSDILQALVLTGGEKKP

CN(C(=O)CN1CCOCC1)c1ccc2sc3c(-c4cccc5c(=O)cc(N6CC7CCC(C6)O7)oc45)cccc3c2c1 [NU5455]
inhibition at 1 µM: -2.3%
